What all share (format): functional
For test [1], the target named is T1, Sentrin-specific protease 6 (Homo sapiens, UniProt Q9GZR1).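 Further: Luminescence-based dose-response confirmatory assay of SENP6 inhibition, following up an ultra-high-throughput screen.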
T1 sequence (Q9GZR1 whole entry): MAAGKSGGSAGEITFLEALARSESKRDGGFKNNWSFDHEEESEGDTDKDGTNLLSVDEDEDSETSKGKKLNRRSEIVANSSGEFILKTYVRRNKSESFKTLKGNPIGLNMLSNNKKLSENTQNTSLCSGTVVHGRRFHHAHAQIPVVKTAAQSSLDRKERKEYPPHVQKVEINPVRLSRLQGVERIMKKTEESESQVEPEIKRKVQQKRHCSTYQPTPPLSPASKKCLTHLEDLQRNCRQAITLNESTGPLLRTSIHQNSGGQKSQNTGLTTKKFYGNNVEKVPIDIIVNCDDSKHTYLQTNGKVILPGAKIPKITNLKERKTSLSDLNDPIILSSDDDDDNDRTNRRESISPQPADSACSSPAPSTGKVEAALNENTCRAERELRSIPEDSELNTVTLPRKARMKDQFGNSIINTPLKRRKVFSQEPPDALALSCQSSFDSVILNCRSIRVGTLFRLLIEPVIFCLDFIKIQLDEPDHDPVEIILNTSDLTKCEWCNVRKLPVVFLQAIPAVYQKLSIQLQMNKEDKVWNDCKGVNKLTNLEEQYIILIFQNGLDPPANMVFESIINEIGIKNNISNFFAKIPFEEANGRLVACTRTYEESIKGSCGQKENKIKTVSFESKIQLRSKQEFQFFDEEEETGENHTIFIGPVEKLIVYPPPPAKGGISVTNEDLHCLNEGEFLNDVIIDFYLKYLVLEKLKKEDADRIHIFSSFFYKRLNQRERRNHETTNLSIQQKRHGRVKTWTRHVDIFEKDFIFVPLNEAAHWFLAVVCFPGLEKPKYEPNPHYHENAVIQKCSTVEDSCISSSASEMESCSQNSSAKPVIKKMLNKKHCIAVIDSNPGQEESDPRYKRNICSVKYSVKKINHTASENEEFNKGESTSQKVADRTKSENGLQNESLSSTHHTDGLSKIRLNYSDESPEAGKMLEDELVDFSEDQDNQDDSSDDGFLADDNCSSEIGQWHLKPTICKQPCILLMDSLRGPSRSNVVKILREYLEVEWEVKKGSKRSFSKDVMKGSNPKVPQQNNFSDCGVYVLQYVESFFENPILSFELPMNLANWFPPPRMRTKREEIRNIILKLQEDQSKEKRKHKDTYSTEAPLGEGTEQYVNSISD

In the next test the target is T2, Caspase-3 (Homo sapiens, UniProt P42574).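 Further: Dose-response selectivity test against caspase-3 for candidate inhibitors of sentrin-specific proteases (SENPs).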
T2 sequence (P42574 whole entry): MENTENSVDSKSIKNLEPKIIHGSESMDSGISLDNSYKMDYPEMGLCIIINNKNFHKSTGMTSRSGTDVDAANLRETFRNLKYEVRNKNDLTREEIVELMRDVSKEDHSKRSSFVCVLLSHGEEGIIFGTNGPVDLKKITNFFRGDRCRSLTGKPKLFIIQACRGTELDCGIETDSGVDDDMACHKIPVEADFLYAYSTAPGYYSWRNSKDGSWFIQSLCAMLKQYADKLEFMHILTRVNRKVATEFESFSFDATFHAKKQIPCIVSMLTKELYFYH

Test [2] deals with T3, Sentrin-specific protease 8 (Homo sapiens, UniProt Q96LD8).
T3 sequence (Q96LD8 whole entry): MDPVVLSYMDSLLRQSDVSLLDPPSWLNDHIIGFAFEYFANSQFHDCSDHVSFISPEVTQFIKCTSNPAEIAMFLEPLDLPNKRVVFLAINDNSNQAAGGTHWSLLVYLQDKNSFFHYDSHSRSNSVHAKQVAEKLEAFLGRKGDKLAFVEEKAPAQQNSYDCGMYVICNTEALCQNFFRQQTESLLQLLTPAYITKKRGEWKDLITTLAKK

For test [3], the target named is Inhibitor of nuclear factor kappa-B kinase subunit epsilon (Homo sapiens, UniProt Q14164). In words: Navigating the Kinome. Panel member name: IKBKE.
For test [4], the target named is Tyrosine-protein kinase Lck (Homo sapiens, UniProt P06239).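 Further: lck was assayed as one member of a kinase panel.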
Tyrosine-protein kinase Lck, sequence (P06239 whole entry): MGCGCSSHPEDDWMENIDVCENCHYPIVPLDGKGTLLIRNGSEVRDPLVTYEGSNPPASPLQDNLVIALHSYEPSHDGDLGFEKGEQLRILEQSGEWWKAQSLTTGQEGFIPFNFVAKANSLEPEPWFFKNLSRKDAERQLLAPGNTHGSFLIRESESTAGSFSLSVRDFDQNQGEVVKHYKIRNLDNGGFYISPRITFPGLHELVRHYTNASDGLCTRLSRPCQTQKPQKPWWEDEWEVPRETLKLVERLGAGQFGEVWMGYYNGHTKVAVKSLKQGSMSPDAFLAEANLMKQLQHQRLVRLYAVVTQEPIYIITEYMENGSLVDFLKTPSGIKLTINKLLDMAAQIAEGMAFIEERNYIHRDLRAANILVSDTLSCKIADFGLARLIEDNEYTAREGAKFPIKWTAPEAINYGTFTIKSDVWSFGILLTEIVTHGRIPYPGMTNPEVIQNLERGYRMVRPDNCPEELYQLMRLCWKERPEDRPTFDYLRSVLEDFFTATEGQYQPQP
For test [5], the target named is Serine/threonine-protein kinase PAK 4 (Homo sapiens, UniProt O96013).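 Further: value obtained within a kinome profiling panel in which PAK4 was one of the panel members.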
Test [6] deals with Glycogen synthase kinase-3 alpha (Homo sapiens, UniProt P49840).
Test [7] addresses Cyclin-dependent kinase 9 (Homo sapiens, UniProt P50750).
For test [8], the target named is Mitogen-activated protein kinase 14 (Homo sapiens, UniProt Q16539).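 Further: part of a kinome-wide panel, MAPK14 entry.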
Mitogen-activated protein kinase 14, sequence (Q16539 whole entry): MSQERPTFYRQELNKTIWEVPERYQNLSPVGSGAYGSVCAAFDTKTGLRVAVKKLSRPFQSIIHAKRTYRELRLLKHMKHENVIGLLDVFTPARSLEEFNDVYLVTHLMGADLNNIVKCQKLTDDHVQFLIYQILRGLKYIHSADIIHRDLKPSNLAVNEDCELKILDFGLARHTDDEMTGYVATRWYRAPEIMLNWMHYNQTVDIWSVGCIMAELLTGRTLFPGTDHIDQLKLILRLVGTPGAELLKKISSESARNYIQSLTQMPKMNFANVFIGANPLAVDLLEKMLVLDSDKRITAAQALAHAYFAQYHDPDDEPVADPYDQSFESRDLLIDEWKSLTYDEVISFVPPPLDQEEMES
The target in test [9] is Fibroblast growth factor receptor 1 (Homo sapiens, UniProt P11362).
Fibroblast growth factor receptor 1, sequence (P11362 whole entry): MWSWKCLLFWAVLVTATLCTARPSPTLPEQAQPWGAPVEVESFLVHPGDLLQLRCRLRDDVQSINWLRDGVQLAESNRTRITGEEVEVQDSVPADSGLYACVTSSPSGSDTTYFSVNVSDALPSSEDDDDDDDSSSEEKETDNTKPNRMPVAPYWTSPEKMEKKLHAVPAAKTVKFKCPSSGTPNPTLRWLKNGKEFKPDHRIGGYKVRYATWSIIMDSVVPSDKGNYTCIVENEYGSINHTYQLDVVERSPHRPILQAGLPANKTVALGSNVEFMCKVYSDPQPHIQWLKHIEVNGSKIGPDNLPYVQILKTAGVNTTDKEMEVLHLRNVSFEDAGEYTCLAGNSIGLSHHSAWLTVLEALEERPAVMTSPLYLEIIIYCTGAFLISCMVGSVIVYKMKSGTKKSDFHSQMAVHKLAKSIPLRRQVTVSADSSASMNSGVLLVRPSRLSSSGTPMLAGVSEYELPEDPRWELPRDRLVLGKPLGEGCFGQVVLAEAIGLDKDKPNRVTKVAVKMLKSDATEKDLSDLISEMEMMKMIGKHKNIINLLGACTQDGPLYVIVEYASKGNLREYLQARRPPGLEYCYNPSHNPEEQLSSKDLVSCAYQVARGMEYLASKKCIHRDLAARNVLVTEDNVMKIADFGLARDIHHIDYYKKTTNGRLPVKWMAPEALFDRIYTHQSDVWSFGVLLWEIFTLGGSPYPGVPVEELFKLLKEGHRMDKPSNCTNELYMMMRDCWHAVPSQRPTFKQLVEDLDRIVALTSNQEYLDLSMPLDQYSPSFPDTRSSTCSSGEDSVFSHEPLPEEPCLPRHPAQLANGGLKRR
The target in test [10] is Cyclin-dependent kinase 7 (Homo sapiens, UniProt P50613).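 Further: value comes from a kinome-wide kinase profiling panel in which CDK7 is one member.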
Cyclin-dependent kinase 7, sequence (P50613 whole entry): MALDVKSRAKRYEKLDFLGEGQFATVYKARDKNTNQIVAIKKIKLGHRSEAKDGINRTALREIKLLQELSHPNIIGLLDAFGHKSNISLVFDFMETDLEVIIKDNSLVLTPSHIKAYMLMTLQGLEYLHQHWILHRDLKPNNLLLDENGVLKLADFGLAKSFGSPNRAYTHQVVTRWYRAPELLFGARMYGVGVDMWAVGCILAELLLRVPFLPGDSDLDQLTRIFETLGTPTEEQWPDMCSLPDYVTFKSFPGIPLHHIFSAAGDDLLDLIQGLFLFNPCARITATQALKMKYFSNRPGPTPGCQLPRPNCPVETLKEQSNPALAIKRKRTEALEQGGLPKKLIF
Test [11] has as its target Serine/threonine-protein kinase TBK1 (Homo sapiens, UniProt Q9UHD2). As to the kind of experiment: Navigating the Kinome. Panel member name: TBK1.
In test [12] the target is Cyclin-dependent kinase 5 (Homo sapiens, UniProt Q00535).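 Further: CDK5 measured as one member of a kinase profiling panel.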
Cyclin-dependent kinase 5, sequence (Q00535 whole entry): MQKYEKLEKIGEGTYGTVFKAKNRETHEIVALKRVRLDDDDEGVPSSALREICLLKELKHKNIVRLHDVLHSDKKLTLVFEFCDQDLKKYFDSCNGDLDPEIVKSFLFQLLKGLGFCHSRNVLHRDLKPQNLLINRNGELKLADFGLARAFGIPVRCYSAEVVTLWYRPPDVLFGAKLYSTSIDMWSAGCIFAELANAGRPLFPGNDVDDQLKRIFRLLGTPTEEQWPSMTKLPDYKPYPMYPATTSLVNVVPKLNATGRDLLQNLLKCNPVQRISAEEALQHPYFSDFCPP
In test [13] the target is Cyclin-dependent kinase 8 (Homo sapiens, UniProt P49336). In words: Navigating the Kinome. Panel member name: CDK8.
For a further test, the target named is Activin receptor type-1 (Homo sapiens, UniProt Q04771). As to the kind of experiment: Navigating the Kinome. Panel member name: ACVR1.
The target in test [14] is Mitogen-activated protein kinase kinase kinase kinase 4 (Homo sapiens, UniProt O95819).
Test [15] concerns the target Glycogen synthase kinase-3 beta (Homo sapiens, UniProt P49841).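 Further: value comes from a broad kinome profiling panel, with GSK3B as the panel member.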
Test [16] has as its target Casein kinase I isoform alpha (Homo sapiens, UniProt P48729).
The target of test [17] is Protein kinase C theta type (Homo sapiens, UniProt Q04759). As to the kind of experiment: Navigating the Kinome. Panel member name: PRKCQ.
Test [18] deals with Tyrosine-protein kinase JAK2 (Homo sapiens, UniProt O60674).
Test [19] deals with Insulin-like growth factor 1 receptor (Homo sapiens, UniProt P08069). As to the kind of experiment: Navigating the Kinome. Panel member name: IGF1R.
Insulin-like growth factor 1 receptor, sequence (P08069 31-736 limits assumed): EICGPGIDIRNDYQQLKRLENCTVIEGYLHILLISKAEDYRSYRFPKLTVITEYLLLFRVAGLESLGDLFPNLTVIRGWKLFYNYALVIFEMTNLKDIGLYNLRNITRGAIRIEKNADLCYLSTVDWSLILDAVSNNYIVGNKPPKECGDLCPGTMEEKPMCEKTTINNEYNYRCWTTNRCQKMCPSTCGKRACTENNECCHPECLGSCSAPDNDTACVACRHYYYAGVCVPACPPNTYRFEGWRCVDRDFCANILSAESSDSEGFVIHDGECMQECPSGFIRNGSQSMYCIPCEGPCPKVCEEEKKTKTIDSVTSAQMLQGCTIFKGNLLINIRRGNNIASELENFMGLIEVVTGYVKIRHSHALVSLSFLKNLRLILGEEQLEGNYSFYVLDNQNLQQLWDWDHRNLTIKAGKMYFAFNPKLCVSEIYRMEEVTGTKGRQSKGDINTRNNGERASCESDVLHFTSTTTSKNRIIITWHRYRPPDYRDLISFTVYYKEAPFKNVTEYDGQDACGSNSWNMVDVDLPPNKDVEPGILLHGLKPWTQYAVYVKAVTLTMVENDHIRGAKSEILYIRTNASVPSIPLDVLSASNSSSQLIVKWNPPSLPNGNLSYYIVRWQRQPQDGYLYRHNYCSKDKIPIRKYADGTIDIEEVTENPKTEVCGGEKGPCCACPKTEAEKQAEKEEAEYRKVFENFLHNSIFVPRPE
Insulin-like growth factor 1 receptor, sequence (P08069 741-1367 limits assumed): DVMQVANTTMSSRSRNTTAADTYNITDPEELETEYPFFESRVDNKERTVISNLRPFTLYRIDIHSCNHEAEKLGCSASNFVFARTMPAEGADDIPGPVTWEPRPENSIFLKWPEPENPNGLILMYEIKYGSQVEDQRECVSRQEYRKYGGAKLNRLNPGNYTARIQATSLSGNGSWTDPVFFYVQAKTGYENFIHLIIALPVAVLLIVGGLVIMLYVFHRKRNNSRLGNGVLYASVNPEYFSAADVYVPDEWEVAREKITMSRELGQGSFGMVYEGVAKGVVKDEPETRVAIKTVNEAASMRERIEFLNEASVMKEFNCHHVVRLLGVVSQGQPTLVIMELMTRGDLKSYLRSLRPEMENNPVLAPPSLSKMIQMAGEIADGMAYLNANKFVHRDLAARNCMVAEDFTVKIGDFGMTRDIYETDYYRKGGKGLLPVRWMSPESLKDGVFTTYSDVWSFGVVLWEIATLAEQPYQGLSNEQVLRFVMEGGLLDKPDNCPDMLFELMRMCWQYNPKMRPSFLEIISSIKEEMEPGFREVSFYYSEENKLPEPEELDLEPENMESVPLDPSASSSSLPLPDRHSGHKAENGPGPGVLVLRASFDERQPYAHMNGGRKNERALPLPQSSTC
Test [20] deals with Macrophage colony-stimulating factor 1 receptor (Homo sapiens, UniProt P07333).
Macrophage colony-stimulating factor 1 receptor, sequence (P07333 whole entry): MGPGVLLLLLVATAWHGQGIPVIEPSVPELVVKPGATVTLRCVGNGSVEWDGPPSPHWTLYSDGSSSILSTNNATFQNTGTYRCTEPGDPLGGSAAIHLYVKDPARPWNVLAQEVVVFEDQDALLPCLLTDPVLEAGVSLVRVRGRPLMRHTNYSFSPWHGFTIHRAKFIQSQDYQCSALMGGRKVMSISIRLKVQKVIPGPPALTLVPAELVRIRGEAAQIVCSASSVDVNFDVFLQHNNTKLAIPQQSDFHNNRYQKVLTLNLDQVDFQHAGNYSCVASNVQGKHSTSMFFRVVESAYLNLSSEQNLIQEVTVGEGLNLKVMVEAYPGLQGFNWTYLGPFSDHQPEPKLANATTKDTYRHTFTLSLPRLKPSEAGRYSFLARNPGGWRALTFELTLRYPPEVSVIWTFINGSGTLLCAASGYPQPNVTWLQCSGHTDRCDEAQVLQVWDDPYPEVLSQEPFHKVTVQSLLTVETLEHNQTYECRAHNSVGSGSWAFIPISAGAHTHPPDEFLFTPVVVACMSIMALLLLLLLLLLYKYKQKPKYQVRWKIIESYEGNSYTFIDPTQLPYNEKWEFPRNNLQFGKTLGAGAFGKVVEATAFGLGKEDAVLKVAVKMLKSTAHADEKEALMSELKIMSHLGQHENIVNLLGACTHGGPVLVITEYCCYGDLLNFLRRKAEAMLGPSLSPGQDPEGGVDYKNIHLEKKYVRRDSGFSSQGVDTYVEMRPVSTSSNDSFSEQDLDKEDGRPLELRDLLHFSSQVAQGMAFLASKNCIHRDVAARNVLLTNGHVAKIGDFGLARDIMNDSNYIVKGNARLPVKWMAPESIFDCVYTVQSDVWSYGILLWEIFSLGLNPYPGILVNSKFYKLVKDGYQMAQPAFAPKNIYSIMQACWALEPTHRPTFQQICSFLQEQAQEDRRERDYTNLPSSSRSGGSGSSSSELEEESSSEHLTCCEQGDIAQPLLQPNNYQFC
Test [21] deals with cAMP-dependent protein kinase catalytic subunit alpha (Homo sapiens, UniProt P17612).

The source made the active and inactive calls.

Cyclin-dependent kinase 9, sequence (P50750 whole entry): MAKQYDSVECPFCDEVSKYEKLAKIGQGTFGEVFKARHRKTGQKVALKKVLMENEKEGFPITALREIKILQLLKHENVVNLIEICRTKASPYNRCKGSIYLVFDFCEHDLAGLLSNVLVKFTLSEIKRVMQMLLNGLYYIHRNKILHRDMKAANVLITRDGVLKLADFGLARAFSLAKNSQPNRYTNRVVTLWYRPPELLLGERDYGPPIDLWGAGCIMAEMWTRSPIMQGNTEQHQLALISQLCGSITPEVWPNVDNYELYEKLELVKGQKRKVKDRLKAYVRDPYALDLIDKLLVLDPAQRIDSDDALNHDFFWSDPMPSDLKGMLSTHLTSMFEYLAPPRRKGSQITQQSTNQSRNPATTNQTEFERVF

For the molecule `Cc1ccc(NC2=C(NCCO)C(=O)c3ccccc3C2=O)cc1`, the results for the IC50 (in test [1]; at Caspase-3; in [2]) were 6.66 µM (active), 11.4 µM (active) and 9.12 µM (active), respectively.

As to `CC(/C=C1\SC(=S)N(NS(=O)(=O)c2ccc(C)cc2)C1=O)=C\c1ccccc1`, the IC50 (as a rule, the concentration that gives 50% inhibition) in test [1] is 3.12 µM (active); at Caspase-3, 12.9 µM (active); in test [2], 3.94 µM (active).

In the case of `Cc1ccc(C)c(NC(=O)c2cc(-c3ccco3)nc3ccccc23)c1`, the Ki (in general, the dissociation constant of the complex between target and ligand, obtained from inhibition or displacement) in test [3] was 3.16 µM (active); in [4], > 6.31 µM (inactive); in test [5] it was 3.98 µM (active); in test [6], > 3.98 µM (inactive); in [7] it was 0.398 µM (active); in test [8], > 3.98 µM (inactive). For the same molecule, the Ki in [9] is 1.58 µM (active); in test [10], 3.98 µM (active); in [11], > 3.16 µM (inactive); in test [12], 1 µM (active); in [13], 1 µM (active); at Activin receptor type-1, 3.16 µM (active). Also, the Ki in test [14] is > 5.01 µM (inactive); in [15] it was 1.58 µM (active).

For the molecule `COc1ccc(C2=NNc3cccc4c(OC)ccc2c34)cc1OC`, the Ki in test [3] is 0.501 µM (active); in test [4] it was > 6.31 µM (inactive); in test [5], 2 µM (active); in test [16], 0.0126 µM (active); in [6], > 3.98 µM (inactive); in test [7], 0.2 µM (active). Moreover, the Ki in test [9] was > 3.98 µM (inactive); in test [17] it was 1.58 µM (active); in test [18], 1 µM (active); in test [10], > 3.98 µM (inactive); in test [11], 0.631 µM (active); in test [19] it was > 2.51 µM (inactive). Besides, the inhibition constant (Ki) in [12] is 0.251 µM (active); in test [20] it was > 2.51 µM (inactive); in [13], > 3.98 µM (inactive); in [21], > 1.26 µM (inactive); at Activin receptor type-1 it was 0.631 µM (active); in [14], 0.398 µM (active). In addition, the Ki in test [15] was > 3.98 µM (inactive).

As for `CN1CCC(c2c(O)cc(O)c3c(=O)cc(-c4ccccc4Cl)oc23)C(O)C1` (stereo unspecified), the Ki in [16] was > 5.01 µM (inactive); in test [8], 3.98 µM (active); in test [17] it was 0.0794 µM (active); in [18], > 2 µM (inactive); in test [19], > 2 µM (inactive); in [20] it was > 2.51 µM (inactive). Besides, the Ki in [21] is > 3.98 µM (inactive).

For the origin of these results see ChEMBL document CHEMBL1201862, “PubChem BioAssay data set” (2004).
